Results reported in US10336712B2, “Compound for enhancing the coupling degree of complex TRPV4-KCa2.3 and anti-hypertension applications thereof” (Jiangnan University, priority 2017, dated 2019).

Columns and labels:
[1] = test system: three high blood pressure types of mice models; test: Blood pressure in three high blood pressure types of mice models; format: in vivo, C57BL/6J mouse; conditions: 1 mg/kg injected via the caudal veins; 8% high-salt, L-NAME and ANG-2 models; FIG. 5
Protocol: (§1) C57BL/6J Male mice, 8 weeks aged, are selected, and freely fed for one week. Then, the mice are classified into four groups, respectively 8% high-salt group, L-NAME group, ANG-2 group and reference group. The basic blood pressures of the four groups of mice are measured first to determine the base line of the blood pressure of the mice. The conditions of the reference group are not changed, and the blood pressure is measured every day. The high-salt group is fed with 8% high-salt feed, and then the blood pressure is measured every day. The L-name group is fed with 5% L-NAME solution, and then the blood pressure is measured every day. The ANG-2 group is injected with 4% chloral hydrate to perform anesthesia; then, the mice are respectively operated by implanting a pump on the back, wherein each pump is injected with 200 ul of 2.88 mg/ml ANG-2 solution; then, the mice are sutured and allowed to recover; after approximately 3 days, the measurement of the blood pressure begins, and then continues for about 4 weeks. […]
Experimental method: three high blood pressure types of mice models are constructed according to the method in Embodiment 4. After modeling succeeds, JNc-440 (1 mg/kg) is injected via the caudal veins, and then the blood pressure of the mice is measured and observed.

[2] = molecular target: T1, endothelial cell ion channel complex TRPV4-KCa2.3 (Mus musculus, UniProt P58391+Q9EPK8); test: FRET AB detection of coupling of TRPV4 and KCa2.3 in mesentery endothelial cells of hypertensive mice; format: cell-based, C57BL/6J mouse; conditions: 10 μM, 96 h, endothelial cells of 8% high-salt, L-NAME and ANG-2 hypertensive mice; FIG. 4
T1 construct: The mesentery endothelial cells of the mice in the high blood pressure model are primarily isolated; endogenous in cells; host or cells: primary mesenteric endothelial cells of hypertensive C57BL/6J mice (high-salt, L-NAME, ANG-2 models)
Protocol: as §1
The mesentery endothelial cells of the mice in the high blood pressure model are primarily isolated and incubated in a constant-temperature cell incubator. […] Then, the coupling of the two proteins before and after the mutation is detected using the laser scanning confocal microscope in the FRET AB mode.

[3] = molecular target: T2, protein KCa2.3 (structural domain 17C) (Mus musculus, UniProt P58391); test: Streptavidin magnetic bead pull-down of biotinylated JNc-440 from endothelial cell protein, Western blot detection; format: binding, C57BL/6 J mouse; conditions: FIG. 3
T2 construct: RIPA Lysis is carried out to obtain cellular protein; endogenous in cells; host or cells: primary mesenteric endothelial cells of C57BL/6J mouse
Protocol: (§2) The endothelial cells of C57BL/6 J mouse mesentery are primarily isolated, and then incubated in a constant-temperature cell incubator. Biotinylated JNc-440 (10 μM/L) is added or oligopeptide and biotinylated JNc-440 (10 μM/L) are added into the incubator to jointly incubated with the cells for 96 h. RIPA Lysis is carried out to obtain cellular protein. The protein supernatant is added with 10 μL streptavidin magnetic beads, and the mixture is incubated at a temperature of 4° C. for a whole night. Suspension generated after the incubation is absorbed using a magnetic stand to obtain an avidin magnetic bead-biotinylated JNc-440-protein complex. The complex is suspended with 50 μL of 1× Loading buffer, and boiled for 5 min in a boiling bath. Samples are separated through SDS-PAGE. Proteins are transferred onto a PVDF membrane. The PVDF membrane with the proteins are confined in 5% BSA for 4 h at room temperature, then incubated with a primary antibody at a temperature of 4° C. for a whole night, and next incubated with a secondary antibody for 2 h at room temperature. ECL color developing agent is added. A protein imaging system is used to detect and analyze the obtained product.

[4] = molecular target: T3, protein TRPV4 (structural domain AR2) (Mus musculus, UniProt Q9EPK8); test: as above; format: binding, C57BL/6 J mouse; conditions: FIG. 3
T3 construct: RIPA Lysis is carried out to obtain cellular protein; endogenous in cells; host or cells: primary mesenteric endothelial cells of C57BL/6J mouse
T3 sequence (Q9EPK8 whole entry, the tested form may be a part): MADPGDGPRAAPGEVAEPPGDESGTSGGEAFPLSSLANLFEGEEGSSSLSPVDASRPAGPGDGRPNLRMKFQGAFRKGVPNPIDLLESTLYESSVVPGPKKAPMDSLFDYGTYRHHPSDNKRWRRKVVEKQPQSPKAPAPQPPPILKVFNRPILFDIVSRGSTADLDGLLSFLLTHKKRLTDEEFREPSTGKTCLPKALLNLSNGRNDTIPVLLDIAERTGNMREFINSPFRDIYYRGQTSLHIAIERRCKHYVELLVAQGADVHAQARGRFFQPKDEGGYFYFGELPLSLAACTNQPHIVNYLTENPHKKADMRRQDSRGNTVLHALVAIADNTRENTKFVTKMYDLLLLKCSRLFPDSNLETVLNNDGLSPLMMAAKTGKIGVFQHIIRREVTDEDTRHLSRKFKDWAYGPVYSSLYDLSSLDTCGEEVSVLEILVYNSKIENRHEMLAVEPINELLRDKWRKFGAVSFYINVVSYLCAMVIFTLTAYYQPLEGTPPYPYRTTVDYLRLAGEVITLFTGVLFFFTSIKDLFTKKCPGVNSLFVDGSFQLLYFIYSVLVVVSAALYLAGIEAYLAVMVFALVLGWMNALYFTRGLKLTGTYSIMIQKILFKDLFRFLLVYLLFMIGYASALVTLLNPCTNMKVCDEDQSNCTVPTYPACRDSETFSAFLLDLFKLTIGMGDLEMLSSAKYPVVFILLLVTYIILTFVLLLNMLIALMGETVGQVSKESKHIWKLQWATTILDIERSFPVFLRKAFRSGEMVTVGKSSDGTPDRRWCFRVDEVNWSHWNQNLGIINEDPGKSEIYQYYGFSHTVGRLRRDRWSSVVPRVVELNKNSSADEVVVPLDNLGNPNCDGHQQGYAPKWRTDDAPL
Protocol: as §2

[5] = 10 μM/L, incubated 96 h with primary mouse mesentery endothelial cells

## O=C(NCCCNC(=O)C(c1ccccc1)c1ccccc1)c1nc(=O)c2ccccc2[nH]1 [JNc-440]
[1]
  blood pressure of the mice: drops obviously
[2]
  space coupling degree of the proteins TRPV4 and KCa2.3 (FRET): increased obviously

## O=C1NC2CSC(CCCCC(=O)OCCCCCNc3nc(C(=O)NCCCNC(=O)C(c4ccccc4)c4ccccc4)nc4ccccc34)C2N1 (stereo not drawn) [biotinylated JNc-440]
[3]; 10 μM/L plus oligopeptide 17C, 96 h, compared with the reference control
  capability of binding with the protein KCa2.3 after the oligopeptide 17C is added: obviously reduced
[3]; [5]
  binding with the protein KCa2.3: can be bound
[4]; 10 μM/L plus oligopeptide AR2, 96 h
  capability of binding with the protein TRPV4 after the oligopeptide AR2 is added: obviously reduced
[4]; [5]
  binding with the protein TRPV4: can be bound
